What follows are molecules tested on Rattus norvegicus (assay: Effect on body weight in Sprague-Dawley rat at 250 mg/kg, po dosed for last 7 days during 30 day high-fat diet feeding schedule measured every 5th day (reference value: 207.67 +/- 1.2 g)).
Assay type: functional
For `Cc1nc2ccccc2c(=O)n1-c1ccc(OCC(=O)O)cc1`, the Activity was 273.85 g.
`Cc1nc2cc(O)ccc2c(=O)n1-c1ccc(OC(C)(C)C(=O)O)cc1` was tested, and the Activity was 260.1 g.
For `O=C(O)COc1ccc(-n2c(-c3ccccc3)nc3ccccc3c2=O)cc1`, the Activity was 281.2 g.
With `CC1N(c2ccc(OCC(=O)O)cc2)C(=O)c2ccccc2N1c1ccccc1` (configuration not stated) the Activity was 274.7 g.
Work on `CC1N(c2ccc(OC(C)(C)C(=O)O)cc2)C(=O)c2ccccc2N1c1ccccc1` (configuration not stated) yielded an Activity of 277.3 g.
`Cc1nc2ccccc2c(=O)n1-c1ccc(OC(C)(C)C(=O)O)cc1` was tested, and the Activity was 272.17 g.
For `Cc1nc2cc(O)ccc2c(=O)n1-c1ccc(OCC(=O)O)cc1`, the Activity was 261.7 g.
`CC(C)(Oc1ccc(-n2c(-c3ccccc3)nc3ccccc3c2=O)cc1)C(=O)O` was tested, and the Activity was 284.5 g.
With `CC(C)OC(=O)C(C)(C)Oc1ccc(C(=O)c2ccc(Cl)cc2)cc1` [FENOFIBRATE] the Activity was 269 g.

Each molecule was assayed on Rattus norvegicus (assay: Hypolipidemic activity in high fat-induced hyperlipidemic Sprague-Dawley rat assessed as VLDL level at 250 mg/kg, po dosed for last 7 days during 30 day high-fat diet feeding schedule (reference value: 23.48+/- 0.78 mg/dl)).
Assay type: functional
In the case of `Cc1nc2ccccc2c(=O)n1-c1ccc(OCC(=O)O)cc1`, the Activity is reported as 34.89 mg/dL.
`Cc1nc2cc(O)ccc2c(=O)n1-c1ccc(OC(C)(C)C(=O)O)cc1` gave an Activity of 35.38 mg/dL.
For `O=C(O)COc1ccc(-n2c(-c3ccccc3)nc3ccccc3c2=O)cc1`, the Activity was 28.16 mg/dL.
Work on `CC1N(c2ccc(OCC(=O)O)cc2)C(=O)c2ccccc2N1c1ccccc1` (configuration not stated) yielded an Activity of 12.21 mg/dL.
For `CC1N(c2ccc(OC(C)(C)C(=O)O)cc2)C(=O)c2ccccc2N1c1ccccc1` (configuration not stated), the Activity was 22.05 mg/dL.
Work on `Cc1nc2ccccc2c(=O)n1-c1ccc(OC(C)(C)C(=O)O)cc1` yielded an Activity of 37.05 mg/dL.
`Cc1nc2cc(O)ccc2c(=O)n1-c1ccc(OCC(=O)O)cc1` gave an Activity of 37.7 mg/dL.
Molecule `CC(C)(Oc1ccc(-n2c(-c3ccccc3)nc3ccccc3c2=O)cc1)C(=O)O` has an Activity of 24.3 mg/dL.
`CC(C)OC(=O)C(C)(C)Oc1ccc(C(=O)c2ccc(Cl)cc2)cc1` [FENOFIBRATE] showed an Activity of 37 mg/dL.

What follows are molecules tested on Rattus norvegicus (assay: Hypolipidemic activity in high fat-induced hyperlipidemic Sprague-Dawley rat assessed as ratio of cholesterol level to HDL level at 250 mg/kg, po dosed for last 7 days during 30 day high-fat diet feeding schedule (reference value: 1.88 +/- 0.05)).
Assay type: functional
`Cc1nc2ccccc2c(=O)n1-c1ccc(OCC(=O)O)cc1` showed a Ratio of 1.99.
Work on `Cc1nc2cc(O)ccc2c(=O)n1-c1ccc(OC(C)(C)C(=O)O)cc1` yielded a Ratio of 1.9.
For `O=C(O)COc1ccc(-n2c(-c3ccccc3)nc3ccccc3c2=O)cc1`, the Ratio was 3.26.
Molecule `CC1N(c2ccc(OCC(=O)O)cc2)C(=O)c2ccccc2N1c1ccccc1` (configuration not stated) has a Ratio of 2.67.
For `CC1N(c2ccc(OC(C)(C)C(=O)O)cc2)C(=O)c2ccccc2N1c1ccccc1` (configuration not stated), the Ratio was 4.15.
Molecule `Cc1nc2ccccc2c(=O)n1-c1ccc(OC(C)(C)C(=O)O)cc1` has a Ratio of 2.32.
`Cc1nc2cc(O)ccc2c(=O)n1-c1ccc(OCC(=O)O)cc1` gave a Ratio of 1.88.
In the case of `CC(C)(Oc1ccc(-n2c(-c3ccccc3)nc3ccccc3c2=O)cc1)C(=O)O`, the Ratio is reported as 3.11.
In the case of `CC(C)OC(=O)C(C)(C)Oc1ccc(C(=O)c2ccc(Cl)cc2)cc1` [FENOFIBRATE], the Ratio is reported as 2.49.

Each molecule was assayed on Rattus norvegicus (assay: Hypolipidemic activity in high fat-induced hyperlipidemic Sprague-Dawley rat assessed as HDL level at 250 mg/kg, po dosed for last 7 days during 30 day high-fat diet feeding schedule (reference value: 37.5 +/- 0.96 mg/dl)).
Assay type: functional
`Cc1nc2ccccc2c(=O)n1-c1ccc(OCC(=O)O)cc1` showed an Activity of 39.1 mg/dL.
With `Cc1nc2cc(O)ccc2c(=O)n1-c1ccc(OC(C)(C)C(=O)O)cc1` the Activity was 40.8 mg/dL.
With `O=C(O)COc1ccc(-n2c(-c3ccccc3)nc3ccccc3c2=O)cc1` the Activity was 33.7 mg/dL.
`CC1N(c2ccc(OCC(=O)O)cc2)C(=O)c2ccccc2N1c1ccccc1` (configuration not stated) gave an Activity of 41.4 mg/dL.
With `CC1N(c2ccc(OC(C)(C)C(=O)O)cc2)C(=O)c2ccccc2N1c1ccccc1` (configuration not stated) the Activity was 25.5 mg/dL.
`Cc1nc2ccccc2c(=O)n1-c1ccc(OC(C)(C)C(=O)O)cc1` showed an Activity of 40 mg/dL.
`Cc1nc2cc(O)ccc2c(=O)n1-c1ccc(OCC(=O)O)cc1` was tested, and the Activity was 40.5 mg/dL.
With `CC(C)(Oc1ccc(-n2c(-c3ccccc3)nc3ccccc3c2=O)cc1)C(=O)O` the Activity was 31.6 mg/dL.
For `CC(C)OC(=O)C(C)(C)Oc1ccc(C(=O)c2ccc(Cl)cc2)cc1` [FENOFIBRATE], the Activity was 34.38 mg/dL.

Each molecule was assayed on Rattus norvegicus (assay: Hypoglycemic activity in Sprague-Dawley rat assessed as blood glucose level at 250 mg/kg, po dosed for last 7 days during 30 day high-fat diet feeding schedule (reference value: 63.70 +/- 0.7 mg/dl)).
Assay type: functional
With `Cc1nc2ccccc2c(=O)n1-c1ccc(OCC(=O)O)cc1` the Activity was 91.8 mg/dL.
`Cc1nc2cc(O)ccc2c(=O)n1-c1ccc(OC(C)(C)C(=O)O)cc1` gave an Activity of 83 mg/dL.
For `O=C(O)COc1ccc(-n2c(-c3ccccc3)nc3ccccc3c2=O)cc1`, the Activity was 112.8 mg/dL.
For `CC1N(c2ccc(OCC(=O)O)cc2)C(=O)c2ccccc2N1c1ccccc1` (configuration not stated), the Activity was 114.1 mg/dL.
Work on `CC1N(c2ccc(OC(C)(C)C(=O)O)cc2)C(=O)c2ccccc2N1c1ccccc1` (configuration not stated) yielded an Activity of 115 mg/dL.
`Cc1nc2ccccc2c(=O)n1-c1ccc(OC(C)(C)C(=O)O)cc1` was tested, and the Activity was 89.19 mg/dL.
Molecule `Cc1nc2cc(O)ccc2c(=O)n1-c1ccc(OCC(=O)O)cc1` has an Activity of 85.3 mg/dL.
`CC(C)(Oc1ccc(-n2c(-c3ccccc3)nc3ccccc3c2=O)cc1)C(=O)O` showed an Activity of 114.8 mg/dL.
`CC(C)OC(=O)C(C)(C)Oc1ccc(C(=O)c2ccc(Cl)cc2)cc1` [FENOFIBRATE] was tested, and the Activity was 86.41 mg/dL.

What follows are molecules tested on Rattus norvegicus (assay: Hypolipidemic activity in high fat-induced hyperlipidemic Sprague-Dawley rat assessed as cholesterol level at 250 mg/kg, po dosed for last 7 days during 30 day high-fat diet feeding schedule (reference value: 70.8 +/- 0.5 mg/dl)).
Assay type: functional
`Cc1nc2ccccc2c(=O)n1-c1ccc(OCC(=O)O)cc1` showed an Activity of 78.5 mg/dL.
In the case of `Cc1nc2cc(O)ccc2c(=O)n1-c1ccc(OC(C)(C)C(=O)O)cc1`, the Activity is reported as 77.7 mg/dL.
`O=C(O)COc1ccc(-n2c(-c3ccccc3)nc3ccccc3c2=O)cc1` gave an Activity of 110.8 mg/dL.
For `CC1N(c2ccc(OCC(=O)O)cc2)C(=O)c2ccccc2N1c1ccccc1` (configuration not stated), the Activity was 108.9 mg/dL.
`CC1N(c2ccc(OC(C)(C)C(=O)O)cc2)C(=O)c2ccccc2N1c1ccccc1` (configuration not stated) was tested, and the Activity was 106.4 mg/dL.
`Cc1nc2ccccc2c(=O)n1-c1ccc(OC(C)(C)C(=O)O)cc1` showed an Activity of 93 mg/dL.
Molecule `Cc1nc2cc(O)ccc2c(=O)n1-c1ccc(OCC(=O)O)cc1` has an Activity of 77 mg/dL.
`CC(C)(Oc1ccc(-n2c(-c3ccccc3)nc3ccccc3c2=O)cc1)C(=O)O` was tested, and the Activity was 97.5 mg/dL.
With `CC(C)OC(=O)C(C)(C)Oc1ccc(C(=O)c2ccc(Cl)cc2)cc1` [FENOFIBRATE] the Activity was 85.4 mg/dL.

The molecules below were run on Rattus norvegicus (assay: Hypolipidemic activity in high fat-induced hyperlipidemic Sprague-Dawley rat assessed as triglyceride level at 250 mg/kg, po dosed for last 7 days during 30 day high-fat diet feeding schedule (reference value: 74.3+/- 0.48 mg/dl)).
Assay type: functional
Molecule `Cc1nc2ccccc2c(=O)n1-c1ccc(OCC(=O)O)cc1` has an Activity of 117.1 mg/dL.
`Cc1nc2cc(O)ccc2c(=O)n1-c1ccc(OC(C)(C)C(=O)O)cc1` was tested, and the Activity was 114.8 mg/dL.
`O=C(O)COc1ccc(-n2c(-c3ccccc3)nc3ccccc3c2=O)cc1` was tested, and the Activity was 144.8 mg/dL.
With `CC1N(c2ccc(OCC(=O)O)cc2)C(=O)c2ccccc2N1c1ccccc1` (configuration not stated) the Activity was 158.8 mg/dL.
Work on `CC1N(c2ccc(OC(C)(C)C(=O)O)cc2)C(=O)c2ccccc2N1c1ccccc1` (configuration not stated) yielded an Activity of 154.8 mg/dL.
Work on `Cc1nc2ccccc2c(=O)n1-c1ccc(OC(C)(C)C(=O)O)cc1` yielded an Activity of 154.1 mg/dL.
Work on `Cc1nc2cc(O)ccc2c(=O)n1-c1ccc(OCC(=O)O)cc1` yielded an Activity of 116.8 mg/dL.
Molecule `CC(C)(Oc1ccc(-n2c(-c3ccccc3)nc3ccccc3c2=O)cc1)C(=O)O` has an Activity of 158 mg/dL.
`CC(C)OC(=O)C(C)(C)Oc1ccc(C(=O)c2ccc(Cl)cc2)cc1` [FENOFIBRATE] gave an Activity of 125.3 mg/dL.

The molecules below were run on Rattus norvegicus (assay: Hypolipidemic activity in high fat-induced hyperlipidemic Sprague-Dawley rat assessed as LDL level at 250 mg/kg, po dosed for last 7 days during 30 day high-fat diet feeding schedule (reference value: 22.42 +/- 0.41 mg/dl)).
Assay type: functional
Work on `Cc1nc2ccccc2c(=O)n1-c1ccc(OCC(=O)O)cc1` yielded an Activity of 47.66 mg/dL.
For `Cc1nc2cc(O)ccc2c(=O)n1-c1ccc(OC(C)(C)C(=O)O)cc1`, the Activity was 35.81 mg/dL.
In the case of `O=C(O)COc1ccc(-n2c(-c3ccccc3)nc3ccccc3c2=O)cc1`, the Activity is reported as 57.22 mg/dL.
Molecule `CC1N(c2ccc(OCC(=O)O)cc2)C(=O)c2ccccc2N1c1ccccc1` (configuration not stated) has an Activity of 70.91 mg/dL.
For `CC1N(c2ccc(OC(C)(C)C(=O)O)cc2)C(=O)c2ccccc2N1c1ccccc1` (configuration not stated), the Activity was 54.78 mg/dL.
Molecule `Cc1nc2ccccc2c(=O)n1-c1ccc(OC(C)(C)C(=O)O)cc1` has an Activity of 44.66 mg/dL.
For `Cc1nc2cc(O)ccc2c(=O)n1-c1ccc(OCC(=O)O)cc1`, the Activity was 47.05 mg/dL.
Work on `CC(C)(Oc1ccc(-n2c(-c3ccccc3)nc3ccccc3c2=O)cc1)C(=O)O` yielded an Activity of 64.33 mg/dL.
In the case of `CC(C)OC(=O)C(C)(C)Oc1ccc(C(=O)c2ccc(Cl)cc2)cc1` [FENOFIBRATE], the Activity is reported as 54.66 mg/dL.
